For experiment [1], the target named is T1, Lanosterol synthase (Homo sapiens, UniProt P48449).
T1 sequence (P48449 whole entry): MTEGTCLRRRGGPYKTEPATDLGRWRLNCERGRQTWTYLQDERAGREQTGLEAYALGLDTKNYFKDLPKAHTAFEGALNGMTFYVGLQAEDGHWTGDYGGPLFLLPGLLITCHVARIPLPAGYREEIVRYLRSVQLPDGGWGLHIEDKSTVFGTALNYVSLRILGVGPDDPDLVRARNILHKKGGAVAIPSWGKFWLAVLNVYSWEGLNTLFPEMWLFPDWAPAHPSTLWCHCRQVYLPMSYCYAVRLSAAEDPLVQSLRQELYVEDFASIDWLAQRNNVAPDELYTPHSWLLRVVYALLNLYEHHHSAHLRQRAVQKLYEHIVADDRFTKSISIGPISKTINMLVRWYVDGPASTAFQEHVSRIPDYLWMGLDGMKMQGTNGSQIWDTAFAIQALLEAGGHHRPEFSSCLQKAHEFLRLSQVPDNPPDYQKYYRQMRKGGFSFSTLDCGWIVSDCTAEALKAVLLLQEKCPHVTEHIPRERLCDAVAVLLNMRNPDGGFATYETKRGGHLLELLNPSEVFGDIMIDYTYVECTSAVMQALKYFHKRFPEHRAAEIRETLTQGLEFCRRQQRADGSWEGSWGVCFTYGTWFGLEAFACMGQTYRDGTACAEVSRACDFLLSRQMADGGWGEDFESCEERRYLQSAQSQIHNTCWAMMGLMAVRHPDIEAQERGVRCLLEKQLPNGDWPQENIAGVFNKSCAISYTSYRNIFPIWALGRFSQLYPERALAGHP
Kind of experiment: Inhibition of human OSC expressed in Saccharomyces cerevisiae by gas chromatography.

Experiment [2] concerns the target T2, Lanosterol synthase (Homo sapiens) (UniProt P48449).
T2 sequence (whole entry): T1 sequence (P48449 whole entry)
The experiment can be described thus: Inhibition of human OSC expressed in Saccharomyces cerevisiae at 20 uM by gas chromatography relative to LDAO2.

10 compounds from ChEMBL document CHEMBL1932978, “Inhibitors of human 2,3-oxidosqualene cyclase (OSC) discovered by virtual screening” (Bioorg Med Chem Lett, 2012) can be followed below.

In experiment [1], `CN(C)Cc1ccc(CNC(=O)COc2ccc3ccccc3c2)cc1` registered an IC50 of 10.8 µM. In experiment [2], the inhibition turned out to be 83%.
In experiment [1], `CCCCCCCCCCCC[N+](C)(C)[O-]` came in with an IC50 of 6.31 µM. Moreover, the inhibition in experiment [2] is 100%.
Consider `CN(C)Cc1ccc(CNC(=O)Nc2ccc(Cl)cc2)cc1`, for which the IC50 in experiment [1] came out at 3.12 µM. In addition, the inhibition in experiment [2] came to 97%.
For the compound `O=C(CCc1ccc(CN2CCCC2)cc1)Cn1cnc2sc(-c3ccccc3)cc2c1=O`, the half-inhibitory concentration (IC50) in experiment [1] stood at 5.02 µM. The inhibition in experiment [2] was found to be 87%.
`CN(C)Cc1ccc(CNCc2cnn(-c3ccccc3)n2)cc1`: the inhibition in experiment [2] came out at 77%.
Take `COc1ccc(-n2c(C)cc(CNCc3ccc(CN(C)C)cc3)c2C)cc1`: the inhibition in experiment [2] was determined as 75%.
For `O=C(Cc1ccc(Cl)cc1)c1ccc(C(=O)NCCCn2ccnc2)[nH]1`, the inhibition in experiment [2] worked out at 59%.
In turn, `CN(C)Cc1ccc(CNC(=O)c2ccc(C(F)(F)F)cc2)cc1` displayed an IC50 in experiment [1] of 1.38 µM. Also, in experiment [2], the inhibition came to 101%.
For `S=C(NCc1ccccc1)Nc1ccc(Cc2ccncc2)cc1`, in experiment [1], the IC50 was 4.75 µM. Further, the inhibition in experiment [2] worked out at 96%.
Consider `Cc1cc(CNCc2ccc(CN(C)C)cc2)c(C)n1CC(C)C`, for which the inhibition in experiment [2] stood at 27%.
